Holding throughout (details): Compound concentration 10 µM
The target of assay [1] is T1, Alpha-2B adrenergic receptor (Homo sapiens) (UniProt P18089).
T1 sequence (whole entry): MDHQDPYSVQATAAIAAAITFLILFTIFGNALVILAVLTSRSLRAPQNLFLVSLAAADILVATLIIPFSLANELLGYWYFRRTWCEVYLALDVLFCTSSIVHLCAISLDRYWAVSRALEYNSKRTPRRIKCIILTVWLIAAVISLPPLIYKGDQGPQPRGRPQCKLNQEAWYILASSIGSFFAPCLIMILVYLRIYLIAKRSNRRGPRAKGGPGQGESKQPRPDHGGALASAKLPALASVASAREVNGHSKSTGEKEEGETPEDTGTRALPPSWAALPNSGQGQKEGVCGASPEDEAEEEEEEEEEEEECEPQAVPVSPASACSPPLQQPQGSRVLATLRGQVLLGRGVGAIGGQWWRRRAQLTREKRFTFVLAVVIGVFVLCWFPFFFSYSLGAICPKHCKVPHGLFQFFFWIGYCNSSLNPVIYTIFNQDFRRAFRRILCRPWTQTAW

Assay [2] concerns the target T2, Alpha-2C adrenergic receptor (Homo sapiens) (UniProt P18825).
T2 sequence (whole entry): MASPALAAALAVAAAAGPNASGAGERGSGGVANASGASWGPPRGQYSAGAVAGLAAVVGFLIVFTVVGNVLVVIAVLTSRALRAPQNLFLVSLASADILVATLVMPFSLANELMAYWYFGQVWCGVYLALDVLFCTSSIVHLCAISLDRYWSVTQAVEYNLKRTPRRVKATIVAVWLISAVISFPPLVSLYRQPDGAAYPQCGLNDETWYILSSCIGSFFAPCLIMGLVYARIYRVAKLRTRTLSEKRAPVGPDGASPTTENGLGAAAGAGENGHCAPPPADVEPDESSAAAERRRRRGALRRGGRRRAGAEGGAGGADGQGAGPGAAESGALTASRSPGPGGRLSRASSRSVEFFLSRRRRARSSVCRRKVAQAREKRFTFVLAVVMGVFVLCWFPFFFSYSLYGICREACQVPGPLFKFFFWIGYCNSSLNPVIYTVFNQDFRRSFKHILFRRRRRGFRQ

The target of assay [3] is T3, Muscarinic acetylcholine receptor M1 (Homo sapiens) (UniProt P11229).
T3 sequence (whole entry): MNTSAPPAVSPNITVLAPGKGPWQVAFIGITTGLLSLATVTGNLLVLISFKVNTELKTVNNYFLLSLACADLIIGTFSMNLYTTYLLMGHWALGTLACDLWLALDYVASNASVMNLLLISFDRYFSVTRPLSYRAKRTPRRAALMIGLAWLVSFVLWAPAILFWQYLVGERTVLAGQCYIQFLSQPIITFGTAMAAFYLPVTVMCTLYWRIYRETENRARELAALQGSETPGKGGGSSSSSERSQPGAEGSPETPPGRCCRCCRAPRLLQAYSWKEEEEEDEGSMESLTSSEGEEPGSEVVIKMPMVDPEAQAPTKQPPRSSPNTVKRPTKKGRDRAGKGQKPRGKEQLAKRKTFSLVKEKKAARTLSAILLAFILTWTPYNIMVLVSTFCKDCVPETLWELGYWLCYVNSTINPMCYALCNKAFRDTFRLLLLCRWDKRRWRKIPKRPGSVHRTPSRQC

In assay [4] the target is T4, Muscarinic acetylcholine receptor M2 (Homo sapiens) (UniProt P08172).
T4 sequence (whole entry): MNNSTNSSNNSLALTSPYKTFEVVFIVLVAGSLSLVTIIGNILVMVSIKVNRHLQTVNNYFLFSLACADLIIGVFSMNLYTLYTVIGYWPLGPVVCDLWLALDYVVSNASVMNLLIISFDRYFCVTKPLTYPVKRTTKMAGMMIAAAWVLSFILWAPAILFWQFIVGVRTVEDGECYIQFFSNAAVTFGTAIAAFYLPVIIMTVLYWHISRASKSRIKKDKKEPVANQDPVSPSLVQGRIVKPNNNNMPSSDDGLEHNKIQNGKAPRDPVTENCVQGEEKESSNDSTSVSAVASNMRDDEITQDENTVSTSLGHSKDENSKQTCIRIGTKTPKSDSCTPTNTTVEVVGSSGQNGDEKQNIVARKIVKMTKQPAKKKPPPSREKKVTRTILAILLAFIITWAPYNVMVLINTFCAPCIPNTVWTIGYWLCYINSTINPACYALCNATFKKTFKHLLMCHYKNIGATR

The target in assay [5] is Muscarinic acetylcholine receptor M3 (Homo sapiens) (UniProt P20309).
Assay [6] deals with D(1A) dopamine receptor (Homo sapiens) (UniProt P21728).
Assay [7] addresses Histamine H1 receptor (Homo sapiens) (UniProt P35367).
The target of assay [8] is Histamine H4 receptor (Homo sapiens) (UniProt Q9H3N8).
The target of assay [9] is 5-hydroxytryptamine receptor 1D (Homo sapiens) (UniProt P28221).
The target of assay [10] is 5-hydroxytryptamine receptor 2B (Homo sapiens) (UniProt P41595).
In assay [11] the target is 5-hydroxytryptamine receptor 5A (Homo sapiens) (UniProt P47898).
Assay [12] deals with Delta-type opioid receptor (Homo sapiens) (UniProt P41143).
In assay [13] the target is Mu-type opioid receptor (Homo sapiens) (UniProt P35372).
In assay [14] the target is Sigma non-opioid intracellular receptor 1 (Homo sapiens) (UniProt Q99720).
In assay [15] the target is Sodium-dependent dopamine transporter (Homo sapiens) (UniProt Q01959).
Assay [16] deals with Translocator protein (Homo sapiens) (UniProt P30536).
The target in assay [17] is Histamine H2 receptor (Homo sapiens) (UniProt P25021).

For one compound, inhibition results are on record in ChEMBL document CHEMBL5442219.

Mu-type opioid receptor (Homo sapiens), sequence (P35372 whole entry): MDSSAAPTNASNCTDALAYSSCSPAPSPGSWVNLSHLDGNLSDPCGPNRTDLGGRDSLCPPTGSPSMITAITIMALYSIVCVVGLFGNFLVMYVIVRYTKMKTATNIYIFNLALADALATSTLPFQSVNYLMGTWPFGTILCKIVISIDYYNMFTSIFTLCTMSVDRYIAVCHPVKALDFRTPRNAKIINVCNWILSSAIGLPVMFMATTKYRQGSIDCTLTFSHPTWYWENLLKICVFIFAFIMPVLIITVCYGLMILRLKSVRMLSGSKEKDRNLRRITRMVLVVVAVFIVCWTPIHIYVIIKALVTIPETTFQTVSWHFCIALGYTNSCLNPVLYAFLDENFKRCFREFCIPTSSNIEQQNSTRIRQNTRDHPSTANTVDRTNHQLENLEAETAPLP
Muscarinic acetylcholine receptor M3 (Homo sapiens), sequence (P20309 whole entry, looked up): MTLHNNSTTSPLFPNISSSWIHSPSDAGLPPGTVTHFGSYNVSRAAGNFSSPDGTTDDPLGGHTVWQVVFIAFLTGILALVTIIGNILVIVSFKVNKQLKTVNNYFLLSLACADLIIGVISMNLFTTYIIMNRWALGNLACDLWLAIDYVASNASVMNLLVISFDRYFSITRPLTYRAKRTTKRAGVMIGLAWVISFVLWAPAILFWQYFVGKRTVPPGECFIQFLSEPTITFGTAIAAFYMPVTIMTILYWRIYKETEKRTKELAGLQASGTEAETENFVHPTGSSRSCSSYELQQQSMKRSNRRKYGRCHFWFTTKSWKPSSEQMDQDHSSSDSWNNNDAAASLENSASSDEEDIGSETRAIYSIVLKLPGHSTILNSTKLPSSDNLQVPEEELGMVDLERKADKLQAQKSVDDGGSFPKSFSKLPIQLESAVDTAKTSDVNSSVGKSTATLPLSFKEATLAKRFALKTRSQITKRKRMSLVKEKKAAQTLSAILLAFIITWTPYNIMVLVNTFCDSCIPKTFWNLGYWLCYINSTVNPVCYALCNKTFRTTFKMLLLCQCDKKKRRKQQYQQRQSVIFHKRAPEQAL
Sodium-dependent dopamine transporter (Homo sapiens), sequence (Q01959 whole entry): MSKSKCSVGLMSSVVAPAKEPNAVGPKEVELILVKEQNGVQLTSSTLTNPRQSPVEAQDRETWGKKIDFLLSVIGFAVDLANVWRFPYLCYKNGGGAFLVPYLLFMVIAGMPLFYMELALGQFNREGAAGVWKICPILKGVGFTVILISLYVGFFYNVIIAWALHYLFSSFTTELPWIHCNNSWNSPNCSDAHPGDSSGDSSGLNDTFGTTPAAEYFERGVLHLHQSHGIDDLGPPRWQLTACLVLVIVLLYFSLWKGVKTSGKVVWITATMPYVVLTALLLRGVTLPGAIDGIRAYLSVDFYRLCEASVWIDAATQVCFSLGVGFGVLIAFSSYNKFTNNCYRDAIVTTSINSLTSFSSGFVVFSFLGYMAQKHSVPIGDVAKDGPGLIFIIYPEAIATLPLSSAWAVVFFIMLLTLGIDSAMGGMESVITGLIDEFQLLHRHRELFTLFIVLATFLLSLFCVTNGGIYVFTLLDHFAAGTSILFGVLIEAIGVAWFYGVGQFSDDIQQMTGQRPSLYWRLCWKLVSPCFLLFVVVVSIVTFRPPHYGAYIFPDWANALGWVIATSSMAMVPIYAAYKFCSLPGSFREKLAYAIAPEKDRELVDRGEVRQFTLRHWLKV
Sigma non-opioid intracellular receptor 1 (Homo sapiens), sequence (Q99720 whole entry): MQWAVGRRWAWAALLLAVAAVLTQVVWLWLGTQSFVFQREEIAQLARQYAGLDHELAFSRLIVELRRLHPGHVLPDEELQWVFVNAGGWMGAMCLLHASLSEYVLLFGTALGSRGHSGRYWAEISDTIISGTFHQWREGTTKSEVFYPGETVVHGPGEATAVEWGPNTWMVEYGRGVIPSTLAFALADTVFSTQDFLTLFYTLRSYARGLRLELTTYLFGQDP
5-hydroxytryptamine receptor 5A (Homo sapiens), sequence (P47898 whole entry): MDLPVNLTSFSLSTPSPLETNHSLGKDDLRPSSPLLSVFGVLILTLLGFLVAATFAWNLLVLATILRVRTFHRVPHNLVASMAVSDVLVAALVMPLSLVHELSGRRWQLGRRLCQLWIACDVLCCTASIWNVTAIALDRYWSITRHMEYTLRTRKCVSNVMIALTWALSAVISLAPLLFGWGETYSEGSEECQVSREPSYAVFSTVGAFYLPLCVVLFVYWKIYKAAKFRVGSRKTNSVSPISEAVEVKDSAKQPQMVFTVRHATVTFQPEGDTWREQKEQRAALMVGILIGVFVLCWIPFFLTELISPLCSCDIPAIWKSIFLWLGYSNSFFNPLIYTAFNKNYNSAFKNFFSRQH
Histamine H1 receptor (Homo sapiens), sequence (P35367 whole entry): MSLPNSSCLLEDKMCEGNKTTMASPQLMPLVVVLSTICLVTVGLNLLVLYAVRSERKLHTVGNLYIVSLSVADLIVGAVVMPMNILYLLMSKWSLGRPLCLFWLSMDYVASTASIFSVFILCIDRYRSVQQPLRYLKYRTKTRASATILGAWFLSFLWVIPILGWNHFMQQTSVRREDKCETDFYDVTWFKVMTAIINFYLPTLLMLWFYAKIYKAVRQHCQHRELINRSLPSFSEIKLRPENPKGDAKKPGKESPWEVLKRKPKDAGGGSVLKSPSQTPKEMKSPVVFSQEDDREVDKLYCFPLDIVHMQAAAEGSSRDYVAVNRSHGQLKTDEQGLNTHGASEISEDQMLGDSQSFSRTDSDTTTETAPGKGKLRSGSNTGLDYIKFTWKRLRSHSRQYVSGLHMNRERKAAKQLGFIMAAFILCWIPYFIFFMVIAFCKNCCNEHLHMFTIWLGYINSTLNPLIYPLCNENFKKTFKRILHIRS
Histamine H4 receptor (Homo sapiens), sequence (Q9H3N8 whole entry): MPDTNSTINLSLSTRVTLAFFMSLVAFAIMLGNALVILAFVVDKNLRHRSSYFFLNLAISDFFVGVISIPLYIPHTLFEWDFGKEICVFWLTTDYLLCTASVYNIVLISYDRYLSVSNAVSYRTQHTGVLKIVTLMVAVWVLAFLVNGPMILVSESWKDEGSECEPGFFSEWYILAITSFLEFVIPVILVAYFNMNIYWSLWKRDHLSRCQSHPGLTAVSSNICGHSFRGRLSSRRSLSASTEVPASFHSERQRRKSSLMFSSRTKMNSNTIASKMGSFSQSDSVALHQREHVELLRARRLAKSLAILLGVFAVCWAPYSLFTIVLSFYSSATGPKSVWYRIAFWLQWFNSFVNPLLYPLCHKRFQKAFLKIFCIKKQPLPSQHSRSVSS
Histamine H2 receptor (Homo sapiens), sequence (P25021 whole entry): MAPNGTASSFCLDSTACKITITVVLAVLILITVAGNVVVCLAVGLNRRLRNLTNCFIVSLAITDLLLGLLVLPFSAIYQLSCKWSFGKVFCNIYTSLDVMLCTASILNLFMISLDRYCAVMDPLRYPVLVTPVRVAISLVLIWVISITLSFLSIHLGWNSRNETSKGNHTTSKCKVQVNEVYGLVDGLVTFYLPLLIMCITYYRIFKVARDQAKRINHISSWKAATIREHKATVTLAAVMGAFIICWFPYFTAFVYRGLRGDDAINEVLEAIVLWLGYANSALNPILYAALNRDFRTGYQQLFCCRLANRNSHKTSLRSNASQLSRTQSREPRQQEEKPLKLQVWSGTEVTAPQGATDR
5-hydroxytryptamine receptor 2B (Homo sapiens), sequence (P41595 whole entry): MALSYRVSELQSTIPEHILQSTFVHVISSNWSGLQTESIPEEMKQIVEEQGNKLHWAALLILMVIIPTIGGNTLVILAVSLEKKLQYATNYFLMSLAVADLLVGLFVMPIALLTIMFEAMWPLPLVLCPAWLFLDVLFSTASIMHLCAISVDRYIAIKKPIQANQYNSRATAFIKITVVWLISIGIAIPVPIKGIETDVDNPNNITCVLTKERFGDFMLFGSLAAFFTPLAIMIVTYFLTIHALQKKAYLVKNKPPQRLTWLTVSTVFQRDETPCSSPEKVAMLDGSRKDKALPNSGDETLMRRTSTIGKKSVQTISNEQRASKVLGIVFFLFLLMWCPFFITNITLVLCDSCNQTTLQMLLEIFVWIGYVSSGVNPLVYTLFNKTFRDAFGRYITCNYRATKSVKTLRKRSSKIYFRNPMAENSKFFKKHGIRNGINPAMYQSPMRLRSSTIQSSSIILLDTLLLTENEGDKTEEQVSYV
5-hydroxytryptamine receptor 1D (Homo sapiens), sequence (P28221 whole entry): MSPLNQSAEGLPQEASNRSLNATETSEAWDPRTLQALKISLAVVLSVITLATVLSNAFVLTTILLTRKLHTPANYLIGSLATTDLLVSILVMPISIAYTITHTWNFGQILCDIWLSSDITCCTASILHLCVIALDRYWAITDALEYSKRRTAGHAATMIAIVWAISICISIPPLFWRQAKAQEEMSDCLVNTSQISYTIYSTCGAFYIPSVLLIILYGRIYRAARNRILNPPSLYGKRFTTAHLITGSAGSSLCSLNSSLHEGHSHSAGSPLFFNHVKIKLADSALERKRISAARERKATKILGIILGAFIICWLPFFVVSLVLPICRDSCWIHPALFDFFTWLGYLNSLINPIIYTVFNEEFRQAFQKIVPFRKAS
D(1A) dopamine receptor (Homo sapiens), sequence (P21728 whole entry): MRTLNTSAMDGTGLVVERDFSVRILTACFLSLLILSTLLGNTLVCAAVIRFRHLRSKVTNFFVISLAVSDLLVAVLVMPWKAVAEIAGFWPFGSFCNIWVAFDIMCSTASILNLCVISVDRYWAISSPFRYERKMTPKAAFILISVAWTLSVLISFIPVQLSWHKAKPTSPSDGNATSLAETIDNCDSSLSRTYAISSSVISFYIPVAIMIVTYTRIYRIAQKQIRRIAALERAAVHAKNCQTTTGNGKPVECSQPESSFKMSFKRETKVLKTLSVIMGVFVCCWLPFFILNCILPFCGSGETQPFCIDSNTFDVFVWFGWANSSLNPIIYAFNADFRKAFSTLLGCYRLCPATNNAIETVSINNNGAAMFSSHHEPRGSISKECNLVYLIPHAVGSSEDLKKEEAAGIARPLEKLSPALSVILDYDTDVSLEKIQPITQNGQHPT
Translocator protein (Homo sapiens), sequence (P30536 whole entry): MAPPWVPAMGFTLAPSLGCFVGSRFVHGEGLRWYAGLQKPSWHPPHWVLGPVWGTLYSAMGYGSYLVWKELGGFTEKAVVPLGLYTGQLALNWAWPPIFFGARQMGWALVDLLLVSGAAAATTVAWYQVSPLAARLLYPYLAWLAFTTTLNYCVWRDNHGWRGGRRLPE

For the compound `COc1ccc(NS(=O)(=O)c2sc3ccc(Cl)cc3c2C)cc1N1CCNCC1`, the inhibition is 35.1% in assay [1]; 35.2% in assay [2]; -7.39% in [3]; 17% in assay [4]; 3.19% in assay [5]; 16.9% in [6]. Besides, the inhibition in [7] was 15.6%; in [8], 18.2%; in assay [9] it was 66.8%; in assay [10], 71.2%; in assay [11] it was 58.1%; in assay [12] it was 29.8%. For the same compound, the inhibition in assay [13] was 56.3%; in assay [14], 83.6%; in assay [15] it was 63.1%; in assay [16], 39.5%; in assay [17], 13.5%.

One may read the inhibition as the drop in the measured response relative to a control, in per cent.
